Patent US20220411448A1, “CHROMENE-4-ONE DERIVATIVES AS BRAIN-DERIVED NEUROTROPHIC FACTOR (BDNF) MIMETICS” (FLORATEK PHARMA AG, priority 2019, published 2022)

Tests used:
[1] = test system: primary cultures of cerebral cortical astrocytes; experiment: Glucose uptake ([3H]2-deoxyglucose) in astrocyte cultures; format: cell-based, mouse; conditions: 10 μM, 30 minutes after application
Method: Primary cultures of cerebral cortical astrocytes were prepared from Swiss albino newborn mice (1-2 days old) as described [Pellerin L, Magistretti P J. Glutamate uptake into astrocytes stimulates aerobic glycolysis: a mechanism coupling neuronal activity to glucose utilization. Proc Natl Acad Sci USA. 1994 Oct. 25; 91(22):10625-9]. This procedure yields cultures that are >95% immunoreactive for glial fibrillary acidic protein.
Astrocytes are emerging as having significant roles in several homeostatic processes in the brain [Zuchero J B, Barres B A. Glia in mammalian development and disease. Development 2015 142: 3805-3809]. To evaluate the potential effects of Compound A (10 μM) on astrocyte metabolism, the uptake of glucose and lactate release were measured 30 minutes after application of compounds to the culture (FIGS. 2 and 3).
Glucose utilization by cells was measured using radioactive 2-deoxyglucose, a well-established marker of glucose utilization not metabolized within cells. […]
In order to quantify glucose utilization by cells in the presence of Compound A/SND118, radioactive 2-deoxyglucose, a well-established marker of glucose utilization not metabolized within cells, was used. The radioactivity count is thus proportional to the transport and phosphorylation of glucose that enters into the cells. […]

[2] = test system: Arc, cFos, and Zif268; experiment: Quantitative PCR of immediate-early genes linked to neuronal plasticity; format: cell-based, mouse; conditions: 1 μM and 10 μM, 1 h and 2 h treatment
Method: (§1) The effect of Compound A or derivative thereof on the mRNA expression of genes related to plasticity (Arc, cFos, and Zif268) was determined as described. Cox (cytochrome oxidase) was used to evaluate if the derivative changes expression of mitochondrial genes.
(§2) Determination of gene expression was performed as previously described [Yang J, et al, Lactate promotes plasticity gene expression by potentiating NMDA signalling in neurons. Proc Natl Acad Sci USA. 2014. 111(33):12228-33]. Total RNA was isolated from cultured cells using Nucleospin RNA II kit (Macherey-Nagel) according to the manufacturer's instructions. The first strand of cDNA was synthesized from 100 ng of total RNA (60 min at 37° C. followed by 5 min at 95° C.) using a high-capacity RNA to cDNA reverse transcription system (Applied Biosystems). One-twentieth of the resulting cDNA was amplified by quantitative PCR (qPCR) with an ABI Prism 7900 system (Applied Biosystems). The PCR mix was composed of 6 ng of cDNA, 300 nM of forward and reverse primers in 10 μL of ix SYBR-Green PCR MasterMix (Applied Biosystems). Primer sequences were designed using Primer Express 3.0 software (Applied Biosystems) and oligonucleotides were synthesized by Microsynth.

[3] = test system: Cox (cytochrome oxidase); experiment: Quantitative PCR of mitochondrial gene Cox; format: cell-based, mouse; conditions: 1 μM and 10 μM, 1 h and 2 h treatment
Method: as §1, §2

[4] = test system: organotypic hippocampal brain slices with IAA lesion; experiment: Organotypic brain slices, iodoacetic acid injury: mitochondrial membrane potential (TMRM); format: cell-based, mouse; conditions: SND118 10 and 30 μM; SND124 30 μM; IAA 250 μM for 110 min
Method: Preparation of the organotypic brain slices were performed by decapitation of the P9/P10 mouse pups, removing skin and skull and immersing brains in slicing medium (Opti-MEM 1, […]). Brains were hemisected and hippocampi were isolated. Hippocampi were placed on the cutting disc of a McIlwain Tissue Chopper. […] hippocampal slices were chopped transversely. A number of 4 slices per hippocampus were placed on porous (0.4 μM) transparent membrane inserts (Millipore) and incubated for 1 h on ice in HBSS containing 10 mM glucose. Afterwards inserts were transferred to fresh 24-well plates containing 250-300 μl culture medium (50% MEM/EBSS, 25% horse serum, 25% CMF-HBSS, 25 mM glucose, 0.5% pen/strep). Slices were maintained at 37° C. and 5% CO2.
On DV15, brain slices were pretreated with SND derivatives test compounds and the reference 7,8DHF at various concentrations (between […]) for 30 min, followed by the addition of iodoacetic acid (IAA) at 250 μM for 110 min, when cell survival, MMP and toxicity were measured.
Cell survival was measured by the MTT assay. […] Fluorescence was measured with a plate-reader (Cytation 5) using wavelengths of excitation and emission of 548 and 574 nm, respectively (area scan). Values were calculated as percent of control values (vehicle control). Toxicity of the treatment was measured by LDH. […]

[5] = Metabolic stability in mouse liver microsomes; format: in vitro ADME; conditions: male, CD1, mouse, pooled liver microsomes, pH 7.4, 0.5 mg/ml protein, read-out: T1/2 LM mouse
Method: Sample type: pooled liver or intestine microsomes; Species: CD1-mouse (male), human (mixed gender) Time points: 0, 10, 20, 40, 60 min cofactors, and negative control;
Protein content: 0.5 mg/ml: Replicates: 2 with cofactors, 1 without cofactors; Cofactors: NADPH (1 mM)+UDPGA (1 mM)+15 μg/ml alamethicin Buffer: 0.1 M phosphate buffer pH 7.4, 2 mM MgCl2; Spiking solvent: 50% DMSO ( 1/100 to incubation); Quenching solvent: 2-fold volume of 75% ACN, Control: midazolam disappearance rate
The study compounds were incubated with liver or intestine microsomes as specified above. The collected samples were stored at −20 C until thawed at room temperature, centrifuged and analyzed as presented below.
The samples were analysed by UPLC/HR-MS (with data dependent MS/MS mode) to monitor substrate depletion (and later optionally metabolite formation). The analytical method was optimised by using the parent compound for optimum chromatographic properties (peak shape and retention) and mass spectrometric ionisation. Disappearance rate of the study compound was estimated based on relative LC/MS peak areas (o min marked as 100%), and was used to calculate in vitro half-life and clearance (and in vivo extrapolation of hepatic clearance).

mRNA expression of Cox (cytochrome oxidase) [3]: unaffected | half-life at 1 μM [5]: 23 min
Structure (SMILES): O=c1cc(-c2ccc(CCCC[P+](c3ccccc3)(c3ccccc3)c3ccccc3)cc2)oc2c(O)c(O)ccc12 [SND118, 4-[4-(7,8-dihydroxy-4-oxo-chromen-2-yl)phenyl]butyltriphenylphosphonium bromide]
uptake of deoxyglucose (glucose uptake) [1]: increased the uptake of deoxyglucose in the same range as glutamate control | mRNA expression of genes related to plasticity (Arc, cFos, and Zif268) [2]: increased | mitochondria function (MMP, TMRM) after IAA lesion [4]: rescued mitochondria function
